A short description of data set [1]: forced swim test (preclinical). Format: in vivo. Conditions: preclinical studies.
The test system of data set [2] is sigma receptors. Conditions: cited from earlier work.
The conditions of data set [3]: in vivo; cited from earlier work.
For data set [4], the system named is NMDA receptors. Conditions: cited from earlier work.
For data set [5], the system named is depression. Conditions: cited from earlier work.
For data set [6], the system named is treatment resistant patients. The data set can be described thus: off-label use of transbuccal ketamine in treatment resistant patients (day-hospital, preliminary data).

The text below walks through data of US12036221B2, “Ketamine or dextromethorphan formulations and methods of use” (West Virginia University, priority 2014, dated 2024).

On to `COc1ccc2c(c1)[C@]13CCCC[C@@H]1[C@H](C2)N(C)CC3` [DM, dextromethorphan], for which, in data set [1], the “immobility time in the forced swim test” value is given as “dose dependently reduces immobility time”. For the same compound, the “affinity for sigma receptors” value in data set [2] is “significant affinity”. In addition, the “metabolism in the body” value in data set [3] was “rapidly metabolized in the body to dextrorphan”. In addition, in data set [4], the “affinity for NMDA receptors” value is reported as “moderate affinity”.

Take `CN(C)CCCN1c2ccccc2CCc2ccccc21` [imipramine]: in data set [1], the “immobility time in the forced swim test” value was “dose dependently reduces immobility time”.

As for `CNC1(c2ccccc2Cl)CCCCC1=O` (stereo not drawn) [ketamine], the “duration of antidepressant effects” value in data set [5] (in vivo) was “up to two”. Besides, the “onset of antidepressant effects after administration” value in data set [5] (off-label use) is ≤ 24 h. The “onset of rapid acting antidepressant effects” value in data set [5] (sub-anesthetic doses) was “two”. For the same compound, in data set [1], the “immobility time in the forced swim test” value was “dose dependently reduces immobility time”. Besides, the “onset of antidepressant effects” value in data set [6] (0.5 mg/kg liquid ketamine held in the mouth (transbuccal), patient report and clinician observation) was ≤ 24 h. For the same compound, in data set [6] (0.5 mg/kg liquid ketamine, transbuccal / oral mucosa absorption), the side effects entry was “No side effects (except for a transient, mild headache and slight dizziness in one patient each soon after administration)”. Further, in data set [2], the “affinity for sigma receptors” value is “significant affinity”.
